Measured values published in PubChem BioAssay AID463203 (Broad Institute, 2010).
The source made the active and inactive calls.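 How the source made its calls: active means more than half of replicate measurements showing over 20% loss of kinase signal relative to plate controls; inconclusive means some but at most half of replicates over 20% loss; inactive means no replicate over 20% signal loss.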

target: Glycogen synthase kinase-3 alpha (Homo sapiens) (UniProt P49840); test: concentration-response blocking of human GSK3A – biochemical, luminescence, cell-free homogeneous, retest, dose response (AID 463203); settings: GSK-3 alpha enzyme, ADP-Glo luminescence, 60 min
Sequence (P49840 whole entry, looked up): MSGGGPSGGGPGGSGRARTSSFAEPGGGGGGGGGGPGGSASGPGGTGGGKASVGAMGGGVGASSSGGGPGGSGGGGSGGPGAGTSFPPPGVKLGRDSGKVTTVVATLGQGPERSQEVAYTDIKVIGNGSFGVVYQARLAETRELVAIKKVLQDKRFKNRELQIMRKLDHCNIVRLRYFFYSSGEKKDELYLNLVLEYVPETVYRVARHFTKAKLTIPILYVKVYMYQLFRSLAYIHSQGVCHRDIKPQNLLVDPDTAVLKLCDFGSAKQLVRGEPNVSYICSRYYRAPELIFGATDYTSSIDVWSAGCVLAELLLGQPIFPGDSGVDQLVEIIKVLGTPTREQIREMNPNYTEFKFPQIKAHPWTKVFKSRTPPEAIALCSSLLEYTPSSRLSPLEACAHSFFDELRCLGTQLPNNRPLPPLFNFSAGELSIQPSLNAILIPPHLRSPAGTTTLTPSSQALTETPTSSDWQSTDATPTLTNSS

Row | SMILES | AC50
1 | Cc1nnc(NC(=O)c2cccc(S(=O)(=O)N3CC(c4ccccc4)CC3=O)c2)s1 (centres undefined) | > 30 µM (inactive)
2 | COc1ccc(/C=N/NC(=O)c2nnn(-c3nonc3N)c2-c2cccs2)cc1OC | 1.41 µM
3 | COc1ccccc1/C=C1\S/C(=N/NC(=O)c2cccc(Br)c2)NC1=O | > 30 µM (inactive)
4 | Cc1ccc2nc(-c3ccccn3)[nH]c2c1 | > 30 µM (inactive)
5 | CCOc1cc(/C=C2\N=C3CCCCCN3C2=O)ccc1O | 19.3 µM
6 | COc1c(/C=C2\SC(=Nc3ccccc3Cl)NC2=O)cccc1[N+](=O)[O-] | > 30 µM (inactive)
7 | Cn1c(O)c(C=NCCc2c[nH]c3ccccc23)c(=O)n(C)c1=O | 27.9 µM
8 | CNc1ccc(/C=C/C(=O)c2ccc3c(c2)OCCO3)cc1[N+](=O)[O-] | > 30 µM (inactive)
9 | Cc1cccc(N(CC(O)CN2CCCC2)S(=O)(=O)c2ccccc2)c1 (centres undefined) | > 30 µM (inactive)
10 | CC(=O)c1cccc(-c2ccc3c(=O)[nH]c(Nc4ccccc4)cc3c2)c1 | > 30 µM (inactive)
11 | O=C(CSc1nc2[nH]ncc2c(=O)n1-c1ccccc1)NCc1cccs1 | > 30 µM (inactive)
12 | CCOC(=O)c1sc(NC(=O)C2CC2)nc1C | 15 µM
13 | CC1=C(C(=O)OC(C)C)C(c2cccc(F)c2)n2ncnc2N1 (centres undefined) | > 30 µM (inactive)
14 | CC(=O)Nc1ccc2nsnc2c1 | > 30 µM (inactive)
15 | Nc1c(C(=O)Nc2ccc3c(c2)OCCO3)nnn1Cc1ccccc1Cl | > 30 µM (inactive)
16 | COc1ccc(C(=O)c2cc(C(C)=O)c(Nc3ccccc3)s2)cc1 | > 30 µM (inactive)
17 | NC(=O)c1cc(Br)cc2c3c([nH]c12)CCCC3 | 9.98 µM
18 | Cn1c2ccc(F)cc2c2nc3ccccc3nc21 | > 30 µM (inactive)
19 | Cc1nnc(SCC(=O)Nc2ccc(Br)cn2)[nH]c1=O | 13.7 µM
20 | CC(C)OC(=O)c1nnn(-c2nonc2N)c1CN1CCCCCC1 | > 30 µM (inactive)
21 | CCN(CC)c1ccc2ccc(=O)oc2c1 | > 30 µM (inactive)
22 | Cc1ccc(/C=N/NC(=O)c2nnn(-c3nonc3N)c2CN(C)C)s1 | > 30 µM (inactive)
23 | CCn1c(SCC(=O)N/N=C/C=C\c2ccco2)nc2ccccc21 | > 30 µM (inactive)
24 | COc1ccc(-c2cn3cccnc3n2)cc1NC(=O)C1CC1 | > 30 µM (inactive)
25 | Cc1cc(NC(=O)c2sc(Nc3ccc(F)cc3)nc2N)no1 | 8.04 µM
26 | N#CC1=C(N)Oc2n[nH]c(-c3cccnc3)c2C1c1cc(F)ccc1F (centres undefined) | > 30 µM (inactive)

Row | SMILES | AC50
27 | CN(C)CCCNS(=O)(=O)c1ccc(NC2CCCCCC2)c([N+](=O)[O-])c1 | > 30 µM (inactive)
28 | CC1(C)CC(=O)C(C2c3ccccc3Oc3ccccc32)C(=O)C1 | > 30 µM (inactive)
29 | COc1ccc(NC(=O)CNc2cccc(S(=O)(=O)N3CCCCCC3)c2)c([N+](=O)[O-])c1 | > 30 µM (inactive)
30 | O=[N+]([O-])c1c(NCCCO)cc(Sc2nc3ccccc3s2)c2nonc12 | > 30 µM (inactive)
31 | COc1ccc(S(=O)(=O)N[C@@H](CC(C)C)C(=O)O)cc1 | > 30 µM (inactive)
32 | COc1c(OC)c(O)c2c(=O)c(O)c(-c3ccccc3)oc2c1OC | > 30 µM (inactive)
33 | CCC(=NCCCO)c1c(O)n(-c2ccc(OC)cc2)c(=O)[nH]c1=O | > 30 µM (inactive)
34 | Cc1ccccc1OCCSc1nnc(C)n1-c1ccccc1 | > 30 µM (inactive)
35 | CCOC(=O)c1cc(-c2ccccc2)n(CCC(=O)NC(C)CC)c1C (centres undefined) | > 30 µM (inactive)
36 | C/C(=N\O)C(=O)NCCCn1ccnc1 | > 30 µM (inactive)
37 | COc1ccc(Nc2nc(N)nc(COc3ccc(OC)cc3)n2)cc1 | > 30 µM (inactive)
38 | Cc1cc(NC(=O)CSc2nc3ccccc3c(=O)n2CCCC(=O)NCc2ccco2)n[nH]1 | > 30 µM (inactive)
39 | O=C(CCCN1C(=O)C2CCCCN2C1=O)N1CCN(c2ccc([N+](=O)[O-])cc2)CC1 (centres undefined) | > 30 µM (inactive)
40 | NNc1nc2sc3c(c2c(=O)[nH]1)CCc1ccccc1-3 | > 30 µM (inactive)
41 | CC1=C(C#N)c2nc(N)c(C#N)c(C)c2/C1=C\c1ccc(OCC(=O)O)c(Cl)c1 | 20.4 µM
42 | COc1ccc(C(=O)c2c(C(F)(F)F)oc3c2C(=O)c2ccccc2C3=O)cc1 | > 30 µM (inactive)
43 | O=C(O)c1ccc2c(c1)C(=O)N(CCCCCCCN1C(=O)c3ccc(C(=O)O)cc3C1=O)C2=O | 22.2 µM
44 | CCOC(=O)CC(C#N)c1c[nH]c2ccccc12 (centres undefined) | > 30 µM (inactive)
45 | CC(=O)c1sc(NC(=O)c2ccc3c(c2)OCO3)nc1C | > 30 µM (inactive)
46 | COc1ccc(NC(=O)CN(C)C2CCCCC2)c([N+](=O)[O-])c1 | > 30 µM (inactive)
47 | C[C@H](NC(=O)c1nc[nH]c1C(=O)NC1CCN(C(=O)OC(C)(C)C)CC1)C(=O)OC(C)(C)C | 31.3 µM
48 | CCOC(=O)c1nnn(-c2nonc2N)c1-c1ccc(Br)cc1 | 12.4 µM
49 | CC1(C)CC(=O)C(C(C2=C(O)CC(C)(C)CC2=O)c2cccc(O)c2)C(=O)C1 (centres undefined) | > 30 µM (inactive)
50 | COc1ccc(S(=O)(=O)NCc2ccc(C(=O)N3CCC4(CC3)OCCO4)cc2)cc1 | > 30 µM (inactive)
51 | O=c1cc(-c2ccc(O)cc2)oc2c1ccc1ccccc12 | 1.33 µM
52 | COc1ccc2nc(NC(=O)CSc3cn[nH]n3)sc2c1 | 9.56 µM

Row | SMILES | AC50
53 | c1ccc2[nH]c(-c3ccncc3)nc2c1 | > 30 µM (inactive)
54 | O=C(O)c1ccc2c(c1)S(=O)(=O)c1cc(Cl)ccc1C2=O | 6.54 µM
55 | Cc1onc(-c2ccccc2Cl)c1C(=O)Nc1ccc(-c2cn3cccnc3n2)cc1 | > 30 µM (inactive)
56 | Fc1ccc(/C=N/Nc2cc(N3CCOCC3)ncn2)cc1 | > 30 µM (inactive)
57 | Cc1cc(C)nc(NC(=O)/C=C/c2cccs2)c1 | > 30 µM (inactive)
58 | O=C1NC(=S)N/C1=C\c1ccc(N2CCOCC2)cc1 | > 30 µM (inactive)
59 | COc1cccc(Nc2nc(N)c([N+](=O)[O-])c(NCc3ccco3)n2)c1 | 5.75 µM
60 | Clc1ccc(OCc2nnc(SCc3nnc(-c4ccccc4)o3)o2)c(Cl)c1 | > 30 µM (inactive)
61 | Cc1cc(C(C#N)c2ccccc2)n2ncnc2n1 (centres undefined) | 3.35 µM
62 | COc1ccc(CC(=O)Nc2ccc(-c3cn4ccccc4n3)cc2)cc1OC | > 30 µM (inactive)
63 | COc1c2ccccc2nc2ccccc12 | > 30 µM (inactive)
64 | N#CC(C#N)=Cc1c[nH]c(=O)c(C#N)c1Nc1ccccc1 | 9.4 µM
65 | Cc1ccc(/C=C2\C(=O)Nc3ccccc32)o1 | 31.4 µM
66 | Nc1nc(-c2ccccc2)nc(-c2ccccc2O)n1 | 21.4 µM
67 | Cc1ccc(C(=O)Nc2cccc(-c3cnc4ccccc4n3)c2)cc1 | > 30 µM (inactive)
68 | N#C/C(=N\Nc1cccc(F)c1)C(=O)C1CC1 | > 30 µM (inactive)
69 | Cc1cc(C(C#N)c2cccc(Cl)c2)n2ncnc2n1 (centres undefined) | 5.78 µM
70 | COc1ccc2nc(NC(=O)CN3CCN(C)CC3)sc2c1 | > 30 µM (inactive)
71 | CCOc1cccc(-c2c(C(=O)N/N=C(\C)c3cccnc3)nnn2-c2nonc2N)c1 | 5.21 µM
72 | CCN(CC)C(=O)c1ccc(NC(=O)Nc2ccccc2F)cc1 | 26.5 µM
73 | COc1ccc(CCNC(=O)c2nnn(-c3ccccc3OC)c2N)cc1OC | 14.8 µM
74 | O=C(Cn1ncc2c(=O)oc3ccccc3c21)N1CCc2ccccc2C1 | > 30 µM (inactive)
75 | O=C(COC(=O)c1cc(S(=O)(=O)N2CCOCC2)ccc1F)Nc1ccc(Cl)cn1 | 2.72 µM
76 | Fc1cccc(/C=N/Nc2nccnc2Cl)c1 | > 30 µM (inactive)
77 | Nc1c(C(=O)NCc2ccco2)c2nc3ccccc3nc2n1CCN1CCOCC1 | > 30 µM (inactive)
78 | N#CC1=C2SCN(c3ccccc3)CN2C(=O)CC1c1c(Cl)cccc1Cl (centres undefined) | > 30 µM (inactive)

Row | SMILES | AC50
79 | CSc1ccc(/C=N/NC(=O)c2ccccc2Cl)cc1 | > 30 µM (inactive)
80 | CC(C)CNc1cc(N2CCCC2)ccc1[N+](=O)[O-] | > 30 µM (inactive)
81 | Cc1ccnc(NC(=O)CCC(=O)N(CC(=O)NCc2ccccc2)Cc2ccccc2)c1 | 15.1 µM
82 | O=C(Nc1cccc(F)c1)C1CCCN1S(=O)(=O)c1cccc2cccnc12 (centres undefined) | 11.8 µM
83 | COc1ccc(C(=O)NCC(=O)N/N=C/C=C/c2ccccc2)cc1OC | > 30 µM (inactive)
84 | O=c1[nH]c(=O)n(C2CCCCCC2)c(O)c1C=NC1CCN(Cc2ccccc2)CC1 | 9.67 µM
85 | O=C(O)c1cc(NC(=O)c2ccccc2[N+](=O)[O-])ccc1O | > 30 µM (inactive)
86 | CC(=C/c1ccccc1)/C=N/NC(=O)c1nnn(-c2nonc2N)c1CN1CCC(C)CC1 | > 30 µM (inactive)
87 | FC(F)(F)c1nnc2n1N=C(c1cccs1)CS2 | > 30 µM (inactive)
88 | CCCCc1ccc(NC(=O)N[C@H](C(=O)O)C(C)C)cc1 | > 30 µM (inactive)
89 | C=C(C)CSc1nnc([C@@H](N)Cc2c[nH]c3ccccc23)o1 | > 30 µM (inactive)
90 | CS(=O)(=O)N1CCN(c2ccccc2NC(=O)c2cccs2)CC1 | > 30 µM (inactive)
91 | COC(=O)[C@@H](NC(=O)NCc1ccc(F)cc1)C(C)C | > 30 µM (inactive)
92 | Nc1nonc1-c1nc2ccccc2n1CCC(=O)O | 16.4 µM
93 | CCOc1ccc(N2C(=O)C3C(c4ccccc4F)NN(C(=O)c4ccc(C)cc4)C3C2=O)cc1 (centres undefined) | > 30 µM (inactive)
94 | O=C(Oc1cccc(NC(=O)c2ccco2)c1)c1cccc(S(=O)(=O)N2CCCCC2)c1 | > 30 µM (inactive)
95 | C=CCn1c(O)c(C=NCCCn2ccnc2)c(=O)[nH]c1=O | 14 µM
96 | COc1ccc(CNC(=O)CN(CC2CCCO2)C(=O)CNS(=O)(=O)c2ccccc2)cc1 (centres undefined) | > 30 µM (inactive)
97 | CCOc1cccc(-c2c(C(=O)N/N=C/c3ccoc3)nnn2-c2nonc2N)c1 | 6.81 µM
98 | O=C(NCCCN1CCOCC1)c1cc(Cl)ccc1[N+](=O)[O-] | > 30 µM (inactive)
99 | CCCc1cc(=O)[nH]c(SCC(=O)Nc2sc3c(c2C(N)=O)CCCC3)n1 | > 30 µM (inactive)
100 | Cc1ccc(N=C2NC(=O)/C(=C\c3ccco3)S2)cc1 | > 30 µM (inactive)
101 | Fc1ccc(/C=N/Nc2nccnc2Cl)cc1 | > 30 µM (inactive)
102 | OCc1cn(-c2ccccc2)nn1 | > 30 µM (inactive)
103 | CCOc1cccc(-c2c(C(=O)N/N=C(\C)c3ccncc3)nnn2-c2nonc2N)c1 | 1.45 µM
104 | O=C1/C(=C/c2ccc3c(c2)OCO3)Oc2cc(OCC(=O)N3CCC[C@H]3C(=O)O)ccc21 | 4.35 µM
